Columns and labels:
Format in all cases: physicochemical
[1] = Ross-Miles foam test (foam height and stability); conditions: 0.1 wt % solution
Method: Foam height and stability (time to reach zero foam) were measured by the Ross-Miles foam test, using 0.1 wt % solutions of the surfactants.

[2] = Equilibrium surface tension (Kruss K-12 tensiometer, Wilhelmy plate); conditions: 25±1° C., average of 10 measurements over 10 minutes
Method: Equilibrium surface tensions were determined for the compounds prepared in Examples 1-6, using a Kruss K-12 tensiometer with a platinum Wilhelmy plate, maintaining the temperature at 25±1° C. by means of a constant temperature circulating bath. The results, reported in Table 2, are averages of 10 measurements over a 10-minute period, and have a standard deviation of less than 0.01 dyne/cm.

[3] = Dynamic surface tension (Kruss BP-2 Bubble Pressure Tensiometer); conditions: for Dynamic surface tension reduction of an aqueous solution (in words): summary of Table 4
Method: Dynamic surface tensions were determined for the compounds prepared in Examples 1-5, at 0.1 and 1.0 wt % levels, using a Kruss BP-2 Bubble Pressure Tensiometer.

[4] = Water solubility
[5] = 0.1 wt %, 1 b/s (bubbles/second)

Row | Compound | Initial Foam Height [1] [cm] | Time to 0 foam [1] [s] | Final Foam Height at 300 Sec [1] [cm] | Equilibrium Surface Tension ([2]; 0.1 wt % in water) [dynes/cm] | Equilibrium Surface Tension ([2]; 1.0 wt % in water) [dynes/cm] | Dynamic surface tension [3, 5] [dynes/cm] | Dynamic surface tension ([3]; 0.1 wt %, 5 b/s) [dynes/cm] | Dynamic surface tension ([3]; 0.1 wt %, 20 b/s) [dynes/cm] | Dynamic surface tension ([3]; 1.0 wt %, 1 b/s) [dynes/cm] | Dynamic surface tension ([3]; 1.0 wt %, 5 b/s) [dynes/cm] | Dynamic surface tension ([3]; 1.0 wt %, 20 b/s) [dynes/cm] | Dynamic surface tension reduction of an aqueous solution (in words) [3] | Water Solubility [4] [wt %]
1 | CCCCC(CC)COCC(O)CSCCO (stereo not drawn) [MEEHGE, 2-hydroxyethyl-2′-hydroxy-3′-(2-ethylhexyloxy)propyl sulfide] | 0.6 | 6 | 0 | 30.7 | 29.3 | 35 | 39 | 45 | 30 | 30 | 32 | strong | <0.1
2 | CCCCC(CC)COCC(O)CSCC(O)CO (stereo not drawn) [TGEHGE, 2,3-dihydroxypropyl-2′-hydroxy-3′-(2-ethylhexyloxy)propyl sulfide] | 1.0 | 6 | 0 | 28.3 | 26.7 | 37 | 47 | 53 | 27 | 28 | 30 | strong | <0.1
3 | CCCCOCC(O)CSCCO (stereo not drawn) [MEBGE, 2-hydroxyethyl-2′-hydroxy-3′-butoxypropyl sulfide] | 1.2 | 2 | 0 | 37.1 | 32.6 | 59 | 61 | 65 | 43 | 44 | 44 | moderate | <0.1

Source: patent US7341985B2, “2-Hydroxy-3-alkoxypropyl sulfides, sulfones, and sulfoxides: new surface active agents” (Air Products and Chemicals, Inc., priority 2004, dated 2008)
